# Where a SMILES comes first, the peptide text is derived from it.
# Test: Activation of mouse GPR15 stably expressed in CHO cells expressing Aequorin and Galpha16 measured by luminiscence assay
# Format: cell-based
compound,measurement,value
CC(C)C[C@H](NC(=O)[C@H](CCC(N)=O)NC(=O)[C@@H]1CCCN1C(=O)[C@H](CCCCN)NC(=O)[C@@H](N)CCC(N)=O)C(=O)N[C@@H](Cc1c[nH]c2ccccc12)C(=O)N[C@H](C(=O)N[C@H](C(=O)N1CCC[C@H]1C(=O)NCC(=O)N[C@@H](C)C(=O)N[C@@H](CC(C)C)C(=O)N1CCC[C@H]1C(=O)N[C@@H](CCC(N)=O)C(=O)N[C@H](C(=O)O)C(C)C)C(C)C)C(C)C (H-QKPQLWVVPGALPQV-OH),EC50,4.02 µM

# — ChEMBL document CHEMBL5052820, “Organic compounds” (2019)
